Test results: US20090247646A1, “USE OF RESVERATROL AND DERIVATIVES THEREOF FOR PROMOTING THE WELLNESS STATE IN MAMMALS” (priority 2006, published 2009)

System: gene expression profile of heart, output variable Age
Experiment: Classification of gene expression profile for age (Young/Old) using supervised learning, Support Vector Machine
Format: in vivo, mice
Procedure: Male B6C3F, mice (6-7 weeks of age) were purchased from Harlan Sprague Dawley. Mice were housed singly and provided water ad libitum. The control group (OC, N=5) was fed 98 kcal/week of modified AIN-93M semi-purified diet (Bio-serv, Frenchtown, N.J.), which provides approximately 15% fewer calories than the average ad libitum dietary intake. The treatment group (RES, N=5) was fed the same caloric intake as controls, but were supplemented with resveratrol 50 mg/kg diet (w/w) (3,4′,5-Trihydroxy-trans-stilbene; Sigma) from 14 months of age. Animals (OC and RES) were sacrificed at 30 months of age. Young animals were sacrificed at 5 months of age (YC, N=5). Hearts from all abovementioned groups were collected, immediately frozen in liquid nitrogen and stored at −80° C. until analysis.
Total RNA was extracted from frozen tissue by using TRIZOL reagent (Life Technologies, Grand Island, N.Y.). Polyadenylate [poly(A)^+] RNA was purified from total RNA with oligo-dT-linked oligotex resin (Qiagen, Valencia, Calif.). […]
For the classification analysis, supervised learning using Support Vector Machine (SVM) was performed based on supplied training data, “Young (YC)” and “Old (OC)” groups, to find rules for predicting the output variable “Age”. […] Results from the resveratrol group were then analysed using the Classification function for prediction of the output variable, “Age”. […]

SMILES: Oc1ccc(/C=C/c2cc(O)cc(O)c2)cc1 [resveratrol, 3,4′,5-Trihydroxy-trans-stilbene]
- Classification of chips for output variable Age (all 4 chips of resveratrol group): classified as Young
- Average of g (mean classification output of group) (mean of 4 chips of the RES group, YC 0.9998575, OC −1.023992): 0.3486
